Test results as given in patent publication US20250296973A1, “TREATMENT METHOD USING MAZDUTIDE” (Innovent Biologics (Suzhou) Co., Ltd., priority 2022, published 2025).
Starred links: 1 amine or outer side, 2 acyl side, 3 side chain; linkers in the order of their positions; H or OH if unused. Non-standard residues stand in square brackets, D forms with d. Groups on a side chain read outwards from the residue. No end group written: not given here. *: point of attachment. C20 diacid = O=C(O)CCCCCCCCCCCCCCCCCCC(=O)*; γGlu = O=C(O)[C@H](CCC(=O)[*:2])N[*:1]; AEEA = NCCOCCOCC(=O)O; Aib = CC(C)(N)C(=O)O

Assays:
[1] = Clinical trial of mazdutide dosing regimen (Example 1, 5 cohorts, overweight or obese subjects); assay type: in vivo, human; conditions: for least squares mean of percent change from baseline in body weight: sc once weekly, after 12 weeks
Text: The contents in the vial were reconstituted in sterile water for injection to give a clear solution of mazdutide.
• 1. Aged 18-75 years (inclusive), male or female. • 2. For obesity, BMI≥28.0 kg/m^2; for overweight, 24≤BMI<28.0 kg/m^2 with at least one of the following: i, increased appetite, intolerable hunger before meals, and increased food consumption; ii, comorbidity with one or more of pre-diabetes (impaired fasting glucose and/or impaired glucose tolerance), hypertension, dyslipidemia, and fatty liver (within 6 months before the screening); iii, comorbidity with weight-bearing joint pain; iv, obesity-related dyspnea or obstructive sleep apnea syndrome. • 3. Weight change <5% after at least 12 weeks of diet/exercise weight control alone at the time of screening.
• 1. Use of any of the following drugs or treatments before the screening: • 1) previous use of either GLP-1 receptor (GLP-1R) agonists or GLP-1R/GCGR agonists; • 2) use of drugs that may have an effect on body weight within 3 months before the screening, including: systemic steroid hormone therapy (intravenous, oral, or intraarticular administration), metformin, SGLT2 inhibitors, thiazolidinediones (TZD), tricyclic antidepressants, psychotropic agents, or sedatives (e.g., imipramine, amitriptyline, mirtazapine, paroxetine, phenelzine, chlorpromazine, thioridazine, clozapine, olanzapine, valproic acid, valproic acid derivatives, and lithium salts), and the like; • 3) use of Chinese herbal medicines or health care products that may have an effect on body weight within 3 months before the screening; • 4) previous or current use of weight-loss drugs within 3 months before the screening, such as: sibutramine hydrochloride, orlistat, phentermine, phenylpropanolamine, mazindol, phentermine, amfepramone, lorcaserin, compounded phentermine/topiramate, compounded […], etc.; • 5) participation in other clinical trials (reception of the test drug treatment) within 3 months before the screening. • 2. […] Alcohol abuse is defined as: over 21 units for men or over 14 units for women weekly on average, or unwillingness to cease drinking within 24 hours before dosing and throughout the study period (one unit=360 mL of beer, or 150 mL of wine, or 45 mL of distilled spirits); • 21) drug abuse and positivity in a urine test for drugs at the time of screening. • 3. Any one of the laboratory tests meets the following criteria (those of proper reasons at the time of screening can be re-examined within one week, and the reason for retesting should be documented by the investigator): • 1) serum calcitonin ≥15 ng/L at the time of screening; • 2) at the time of screening, alanine aminotransferase ≥2.0×ULN and/or aspartate aminotransferase ≥2.0×ULN and/or total bilirubin ≥1.0×ULN and/or alkaline phosphatase ≥2.0×ULN; • 3) glomerular filtration rate eGFR<60 mL/min/1.73 m^2 at the time of screening, as estimated using the CKD-EPI equation; • 4) abnormal thyroid function (FT3, FT4, or TSH) at the time of screening; • 5) fasting triglyceride >5.64 mmol/L (500 mg/dL) at the time of screening: if the patient is receiving a lipid-regulating treatment, the dose of the treatment must be stable for 30 days before the screening; • 6) blood amylase or lipase >2.0×ULN at the time of screening; • 7) an international normalized ratio (INR) of prothrombin time greater than the upper limit of the normal range at the time of screening. • 4. Heart rate <50 beats/min or >90 beats/min as measured by 12-lead electrocardiogram (ECG) at the time of screening. • 5. Clinically significant abnormality in 12-lead ECG at the time of screening: atrioventricular block degree II or degree III, long QT syndrome or QTcF>450 ms (see Attachment 3 for the formula), PR interval <120 ms or PR interval >220 ms, QRS>120 ms, left or right bundle branch block, pre-excitation syndrome or severe arrhythmia requiring treatment in the absence of cardiac pacemaker. • 6. […]

[2] = 3.0-6.0-9.0 mg QW sc, after 24 consecutive weeks

mazdutide (H[Aib]QGTFTSDYSKYLDEKKAK([AEEA-AEEA-γGlu-C20 diacid])EFVEWLLEGGGPSSG-NH2; N-terminus assumed; SMILES CC(C)C[C@H](NC(=O)[C@H](CC(C)C)NC(=O)[C@H](Cc1c[nH]c2ccccc12)NC(=O)[C@H](CCC(=O)O)NC(=O)[C@@H](NC(=O)[C@H](Cc1ccccc1)NC(=O)[C@H](CCC(=O)O)NC(=O)[C@H](CCCCNC(=O)COCCOCCNC(=O)COCCOCCNC(=O)CC[C@H](NC(=O)CCCCCCCCCCCCCCCCCCC(=O)O)C(=O)O)NC(=O)[C@H](C)NC(=O)[C@H](CCCCN)NC(=O)[C@H](CCCCN)NC(=O)[C@H](CCC(=O)O)NC(=O)[C@H](CC(=O)O)NC(=O)[C@H](CC(C)C)NC(=O)[C@H](Cc1ccc(O)cc1)NC(=O)[C@H](CCCCN)NC(=O)[C@H](CO)NC(=O)[C@H](Cc1ccc(O)cc1)NC(=O)[C@H](CC(=O)O)NC(=O)[C@H](CO)NC(=O)[C@@H](NC(=O)[C@H](Cc1ccccc1)NC(=O)[C@@H](NC(=O)CNC(=O)[C@H](CCC(N)=O)NC(=O)C(C)(C)NC(=O)[C@@H](N)Cc1c[nH]cn1)[C@@H](C)O)[C@@H](C)O)C(C)C)C(=O)N[C@@H](CCC(=O)O)C(=O)NCC(=O)NCC(=O)NCC(=O)N1CCC[C@H]1C(=O)N[C@@H](CO)C(=O)N[C@@H](CO)C(=O)NCC(N)=O)
subjects with body weight reduced by at least 5% from baseline [2]: 81.7%
subjects with body weight reduced by at least 10% from baseline [2]: 65.0%
subjects with body weight reduced by at least 15% from baseline [2]: 31.7%
subjects with body weight reduced by at least 20% from baseline [2]: 21.7%
dropout rate of the treatment group (human, in vivo): lower than that of the placebo group overall
early termination of treatment due to adverse events (human, in vivo): no subject in the treatment group has terminated treatment in advance due to adverse events
most common treatment emergent adverse events (human, in vivo): gastrointestinal-related adverse events
serious adverse events (human, in vivo): no serious adverse event has occurred
TEAEs resulting in permanent drug withdrawal ([1]; all 5 cohorts): no TEAEs resulting in permanent drug withdrawal occurred
severe TEAEs ([1]; all 5 cohorts): no severe TEAEs were reported
severe hypoglycemic events ([1]; all 5 cohorts): no severe hypoglycemic events occurred
severity of treatment emergent adverse events (TEAEs) ([1]; all 5 cohorts): Most treatment emergent adverse events (TEAEs) were mild
treatment emergent serious adverse events (TESAEs) ([1]; all 5 cohorts): no treatment emergent serious adverse events (TESAEs) occurred
least squares mean of percent change from baseline in body weight ([1]; cohort 2: 1.5 mg 4 wk + 3.0 mg 4 wk + 4.5 mg 4 wk): −6.40%
least squares mean of percent change from baseline in body weight ([1]; cohort 3: 2.0 mg 4 wk + 4.0 mg 4 wk + 6.0 mg 4 wk): −6.05%
least squares mean of percent change from baseline in body weight ([1]; cohort 5: 3.0 mg 4 wk + 6.0 mg 4 wk + 9.0 mg 4 wk): −11.7%
weight loss effect at week 12 in indirect comparison with similar drugs ([1]; cohort 5 regimen vs 2.4 mg Semaglutide and 10 mg or 15 mg Tirzepatide regimens, FIG. 6): particularly pronounced weight loss effect
improvement of blood pressure, blood lipid and serum uric acid levels ([1]; different doses in 5 cohorts, FIGS. 3-5 for cohorts 4 and 5): good beneficial effects
